Assays:
[1] = target: Small conductance calcium-activated potassium channel protein 2 (Rattus norvegicus, UniProt P70604); experiment: Inhibitory concentration of compound required for SKCa blocking action was assessed from its ability to inhibit After hyperpolarisation (AHP) in cultured rat sympathetic neurons; type: functional, cell-based, Sympathetic neuron
Rattus norvegicus = species: Rattus norvegicus; experiment: Equieffective molar ratio (EMR) is ratio of concentrations of compound and dequalinium causing 50% inhibition of the After hyperpolarisation (AHP) in rat sympathetic neurons; type: functional, Sympathetic neuron

Small conductance calcium-activated potassium channel protein 2, sequence (P70604 whole entry): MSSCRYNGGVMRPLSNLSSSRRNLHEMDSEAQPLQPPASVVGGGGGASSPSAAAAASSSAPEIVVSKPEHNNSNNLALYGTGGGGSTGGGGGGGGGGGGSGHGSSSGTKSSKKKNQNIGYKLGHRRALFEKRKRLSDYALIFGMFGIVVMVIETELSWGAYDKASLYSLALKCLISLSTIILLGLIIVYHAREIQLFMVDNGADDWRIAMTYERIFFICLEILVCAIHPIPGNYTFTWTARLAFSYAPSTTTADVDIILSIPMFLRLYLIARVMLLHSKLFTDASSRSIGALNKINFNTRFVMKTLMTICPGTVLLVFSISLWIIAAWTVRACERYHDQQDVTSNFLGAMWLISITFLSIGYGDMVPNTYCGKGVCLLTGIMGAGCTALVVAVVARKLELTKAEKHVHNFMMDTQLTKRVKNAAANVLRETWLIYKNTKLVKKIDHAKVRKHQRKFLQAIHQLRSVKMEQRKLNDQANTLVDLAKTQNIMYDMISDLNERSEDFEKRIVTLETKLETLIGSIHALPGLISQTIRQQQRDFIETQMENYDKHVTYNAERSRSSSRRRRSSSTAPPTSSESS

IC50 [1]	Structure (SMILES)	EMR (Rattus norvegicus)
0.31 µM	Nc1cc[n+](Cc2ccc3c(c2)Cc2cc(C[n+]4ccc(N)c5ccccc54)ccc2-3)c2ccccc12	0.33
0.41 µM	Nc1cc[n+](Cc2ccc(CCc3ccc(C[n+]4ccc(N)c5ccccc54)cc3)cc2)c2ccccc12	0.71
0.19 µM	Nc1cc[n+](Cc2ccc(/C=C\c3ccc(C[n+]4ccc(N)c5ccccc54)cc3)cc2)c2ccccc12	0.24
0.29 µM	Nc1cc[n+](Cc2cccc(-c3cccc(C[n+]4ccc(N)c5ccccc54)c3)c2)c2ccccc12	0.55
0.17 µM	c1ccc2c(c1)c1cc[n+]2Cc2ccc(cc2)-c2ccc(cc2)C[n+]2ccc(c3ccccc32)NCCCCCCCCCCN1	0.28
0.11 µM	c1cc2cc(c1)-c1cccc(c1)C[n+]1ccc(c3ccccc31)NCCCCCCCCCCNc1cc[n+](c3ccccc13)C2	0.28
0.45 µM	Nc1cc[n+](Cc2ccc(Cc3ccc(C[n+]4ccc(N)c5ccccc54)cc3)cc2)c2ccccc12	0.39
0.08 µM	c1ccc2c(c1)c1cc[n+]2Cc2ccc(cc2)Cc2ccc(cc2)C[n+]2ccc(c3ccccc32)NCCCCCCCCCCN1 [UCL-1530]	0.16
0.7 µM	c1ccc(C[n+]2ccc(NCCCCCCCCCCNc3cc[n+](Cc4ccccc4)c4ccccc34)c3ccccc32)cc1	1
0.18 µM	c1ccc2c(c1)c1cc[n+]2Cc2ccc(cc2)CCc2ccc(cc2)C[n+]2ccc(c3ccccc32)NCCCCCCCCCCN1	0.58
0.09 µM	c1ccc2c(c1)c1cc[n+]2Cc2ccc3c(c2)Cc2cc(ccc2-3)C[n+]2ccc(c3ccccc32)NCCCCCCCCCCN1	0.12
0.15 µM	C1=C\c2ccc(cc2)C[n+]2ccc(c3ccccc32)NCCCCCCCCCCNc2cc[n+](c3ccccc23)Cc2ccc/1cc2	0.28

Structure (SMILES)	IC50 [1]	EMR (Rattus norvegicus)
Nc1cc[n+](Cc2ccc(-c3ccc(C[n+]4ccc(N)c5ccccc54)cc3)cc2)c2ccccc12	0.38 µM	0.4

— ChEMBL document CHEMBL1151049, “Bis-quinolinium cyclophanes: A novel class of potent blockers of the apamin-sensitive Ca2+-activated K+ channel” (Bioorg Med Chem Lett, 1997)
